Where two headings read alike, the source gives them in different places.
Experiments:
A549 cell line [1] = test: LDH cytotoxicity assay; type: cell-based
Method: 30 minutes after LDH (Abcam Cat# ab65393) administration, optical density at a wavelength of 450 nm was measured using a microplate reader (Hidex plate reader) to quantify the relative LDH activity which was released into the media via the drug's cytotoxic effect.

A549 cell line [2] = test: cells; type: cell-based; settings: Homo sapiens
Method: A549 cells were obtained from ATCC and cultured with culture medium (D0819 DMEM 10% FBS 1% penicillin/streptomycin) at 37°C. Cell viability was measured using an MTT assay. MTT ((3-[4,5-dimethylthiazol-2-yl]-2,5-diphenyltetrazolium bromide) (1x), at 5 mg/ml) was added for 1 hour and formazan was dissolved with DMSO (dimethyl sulfoxide). Optical density at a wavelength of 570 nm was measured using a microplate reader (Hidex plate reader) to quantify the relative number of living cells. To determine treatment concentrations, cells were treated with serially diluted drugs until a concentration that reduced cell viability by around 50%. […] Cells were treated with the drugs at their designated concentrations for two days.

TTK = test: Western blot of TTK protein expression in A549 cells after drug treatment; type: cell-based; settings: A549, 10µM
Method: PVDF membranes were blocked for 30 minutes with 5% skim milk and TBST (Tris Buffered Saline with 0.2% Tween 20) and then treated overnight on a shaker plate at 4°C with 0.5% skim milk with TBST and MCM6 (Abcam Cat# ab201683) and TTK (Abcam Cat# ab187520) primary antibodies diluted 1:20000 and for 30 minutes with TUBA1A (Abeam Cat# ab7291, RRID:AB_2241126) primary antibodies diluted 1:20000. The solution was then replaced with a new solution of 0.5% skim milk with TBST and anti-rabbit (Abeam Cat# ab6721, RRID:AB_955447) or anti-mouse (Abeam Cat# ab6789, RRID:AB_955439) secondary antibodies diluted 1:20000 for 30 minutes.

MCM6 = test: Western blot of MCM6 protein expression in A549 cells after drug treatment
[3] = A549, 48 h, read-out: cell viability
[4] = A549, dose dependent MTT assay, read-out: concentration which could reduce the cell viability by 50%

Row | Compound | necrotic cell death (A549 cell line [1]) | viability at 10 µM (A549 cell line [2]; [3]) [%] | IC50 (A549 cell line [2]; A549, read-out: concentration which could reduce the cell viability by 50%) [µM] | necrotic cell death (A549 cell line [1]; A549, 10µM, lysis positive control 100%, untreated 0%) | IC50 (A549 cell line [2]; [4]) [µM] | effect on TTK protein level (TTK) | protein level of MCM6 (MCM6; A549, 10µM) | cytotoxicity at 0.1 µM (A549 cell line [1]; Homo sapiens, A549, 48 h, read-out: necrotic cell death) [%] | viability at 0.1 µM (A549 cell line [2]; [3]) [%] | protein level of MCM6 (MCM6; A549, 100nM)
1 | COC[C@H]1OC(=O)c2coc3c2[C@@]1(C)C1=C(C3=O)[C@@H]2CCC(=O)[C@@]2(C)C[C@H]1OC(C)=O [wortmannin] | did not induce necrotic cell death | 62.3 | 10 | – | – | – | – | – | – | –
2 | OCCCNc1cc(-c2ccnc(Nc3cccc(Cl)c3)n2)ccn1 [CGP-60474] | – | 29.1 | – | did not induce necrotic cell death | 10 | showed an inhibitory effect on TTK | significantly reduced | – | – | –
3 | O=C1c2c(O)ccc(O)c2C(=O)c2c(NCCNCCO)ccc(NCCNCCO)c21 [mitoxantrone] | – | – | – | – | 0.1 | – | – | 3.45 | 52.2 | significantly reduced

From patent EP4427750A1, “TREATMENT OF LUNG ADENOCARCINOMA” (priority 2023, dated 2024)
